Measurements published in the supplement of paper PMC5908809.

Legend:
[1] = system: normal NK cells expanded with K562-aAPC; experiment: percent inhibition of viability; higher = more inhibition; settings: 72 h, IL-2 2.5 ng/mL
Experimental: (§1)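 Drug sensitivity and resistance testing on K562-aAPC-expanded normal NK cells: 5 concentrations (10-fold steps over a 10,000-fold range), 72 h at 37 °C, viability by CellTiter-Glo normalised to DMSO and benzethonium chloride controls; DSS from the fitted curve.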

[2] = system: DERL-7 (IL-2 2.5 ng/mL); experiment: as above; settings: 72 h
[3] = system: IMC-1 (IL-2 20 ng/mL); experiment: as above; settings: 72 h
[4] = system: KAI3 (IL-2 2.5 ng/mL); experiment: as above; settings: 72 h
[5] = system: KHYG-1 (IL-2 2.5 ng/mL); experiment: as above; settings: 72 h
[6] = system: NK-92 (IL-2 2.5 ng/mL); experiment: as above; settings: 72 h
[7] = system: NK-YS (IL-2 2.5 ng/mL); experiment: as above; settings: 72 h
[8] = system: NKL (IL-2 2.5 ng/mL); experiment: as above; settings: 72 h
[9] = system: SNK-6 (IL-2 2.5 ng/mL); experiment: as above; settings: 72 h
[10] = system: YT (IL-2 2.5 ng/mL); experiment: as above; settings: 72 h
[11] = system: normal primary NK cells, pool 1 (3 donors) (IL-2 2.5 ng/mL); experiment: as above; settings: 72 h
[12] = system: normal primary NK cells, pool 1 (3 donors), resting (IL-2 0 ng/mL); experiment: as above; settings: 72 h
[13] = system: normal primary NK cells, pool 2 (3 donors) (IL-2 2.5 ng/mL); experiment: as above; settings: 72 h
[14] = system: normal primary NK cells, pool 3 (3 donors) (IL-2 2.5 ng/mL); experiment: as above; settings: 72 h
[15] = system: normal NK cells expanded with K562-aAPC; experiment: drug sensitivity score (DSS) (DSS units); higher = more sensitive; extreme values may be limits of the assay; settings: 72 h; IL-2 2.5 ng/mL
Experimental: as §1

[16] = system: DERL-7 (IL-2 2.5 ng/mL); experiment: as above; settings: 72 h
[17] = system: IMC-1 (IL-2 20 ng/mL); experiment: as above; settings: 72 h
[18] = system: KAI3 (IL-2 2.5 ng/mL); experiment: as above; settings: 72 h
[19] = system: KHYG-1 (IL-2 2.5 ng/mL); experiment: as above; settings: 72 h
[20] = system: NK-92 (IL-2 2.5 ng/mL); experiment: as above; settings: 72 h
[21] = system: NK-YS (IL-2 2.5 ng/mL); experiment: as above; settings: 72 h
[22] = system: NKL (IL-2 2.5 ng/mL); experiment: as above; settings: 72 h
[23] = system: SNK-6 (IL-2 2.5 ng/mL); experiment: as above; settings: 72 h
[24] = system: YT (IL-2 2.5 ng/mL); experiment: as above; settings: 72 h
[25] = system: normal primary NK cells, pool 1 (3 donors) (IL-2 2.5 ng/mL); experiment: as above; settings: 72 h
[26] = system: normal primary NK cells, pool 1 (3 donors), resting (IL-2 0 ng/mL); experiment: as above; settings: 72 h
[27] = system: normal primary NK cells, pool 2 (3 donors) (IL-2 2.5 ng/mL); experiment: as above; settings: 72 h
[28] = system: normal primary NK cells, pool 3 (3 donors) (IL-2 2.5 ng/mL); experiment: as above; settings: 72 h

CCc1nc(-c2cccc(C)c2)c(-c2ccnc(NC(=O)c3ccccc3)c2)s1 [TAK-715] (max concentration tested 10000 nM)
percent inhibition of viability [%]
Settings	1 nM	10 nM	100 nM	1000 nM	10000 nM
[1]	-6.95	-2.48	-3.15	7.93	1.86
[2]	-3.04	0.75	-2.18	-4.76	8.69
[3]	-6.3	1.07	-0.32	8.04	35.2
[4]	-4.52	11.6	8.66	14	47
[5]	-3.44	6.66	1.56	3.92	42.6
[6]	-3.47	-2.91	1.84	9.91	81.8
[7]	-4.18	3.4	5.2	13.3	54.6
[8]	-0.29	6.95	13.8	30.5	43.6
[9]	-15.1	-7.56	-2.44	-0.98	67
[10]	-1.34	5.71	0.2	5.66	48.7
[11]	-3.9	-10.5	-3.55	-13.9	13.3
[12]	2.15	0.59	-2.35	-18.5	45.6
[13]	-3.82	0.59	1.26	-4.23	23.5
[14]	-8.64	-2.23	3.1	-8.31	13.7

Settings	drug sensitivity score
[15]	0
[16]	0
[17]	2.93
[18]	3.97
[19]	2.79
[20]	6.19
[21]	5.02
[22]	6.94
[23]	3.59
[24]	3.5
[25]	0.02
[26]	1.63
[27]	0.63
[28]	0.05

CC[C@@H]1C(=O)OC[C@@H]1Cc1cncn1C [Pilocarpine] (max concentration tested 40000 nM)
percent inhibition of viability [%]
Settings	4 nM	40 nM	400 nM	4000 nM	40000 nM
[1]	-3.76	-0.92	0.04	4.29	9.84
[2]	1.42	-1.75	0.14	2.27	-9.94
[3]	0.9	2.74	3.37	7.24	10.8
[4]	-4.19	-2.59	-0.69	0.97	10.8
[5]	-5.1	0.26	0.29	8.1	13.5
[6]	-3.6	-6.46	-0.49	3.22	17.6
[7]	-0.26	2	1.94	9.78	16
[8]	0.76	-2.78	1.71	1.49	4.41
[9]	7.63	1.2	25.3	7.63	17.4
[10]	0.63	-1.77	4.55	7.37	12.4
[11]	-1.79	4.63	-1.46	6	3.9
[12]	2.62	11.3	-11.4	2.11	-5.32
[13]	-4.81	-4.05	-0.5	4.72	-5.35
[14]	-10.7	-14.3	-6.23	1.83	-3.82

Settings	drug sensitivity score
[15]	0
[16]	0
[17]	0
[18]	0.01
[19]	0.51
[20]	0.79
[21]	0.76
[22]	0
[23]	0
[24]	0.14
[25]	0
[26]	0
[27]	0
[28]	0

CC1=C(/C=C/C(C)=C/C=C/C(C)=C/C(=O)O)C(C)(C)CCC1 [Tretinoin] (max concentration tested 10000 nM)
percent inhibition of viability [%]
Settings	1 nM	10 nM	100 nM	1000 nM	10000 nM
[1]	-4.58	-6.04	-10.1	-14.2	-11.4
[2]	0.02	-9.97	-17.2	-1.93	1.55
[3]	-5.65	-8.65	-8.92	-15.6	-11.9
[4]	-2.48	-3.65	-1.2	3.75	16
[5]	-3.1	-0.61	11.5	20.8	33
[6]	-0.77	-12.9	-9.35	0.15	-0.14
[7]	-3.42	-0.23	9.86	11.1	28.9
[8]	-12.8	-0.36	-1.84	17.5	39.7
[9]	-9.38	11.7	19.6	-4.95	10.5
[10]	-1.46	-2.61	-3.8	-1.99	3.09
[11]	-4.29	-17	-11.3	-4.32	10.6
[12]	-8.15	-5.96	-18.7	18.4	26.4
[13]	-8.71	-3.05	-10.2	-13.1	1.08
[14]	-4.65	-2.78	-10.4	-7.74	-8.57

Settings	drug sensitivity score
[15]	0
[16]	0
[17]	0
[18]	0.68
[19]	4.32
[20]	0
[21]	2.28
[22]	4.28
[23]	0
[24]	0
[25]	0
[26]	3.02
[27]	0
[28]	0
